Laboratory results: patent publication US20260265208A1, “TETRALINE, PHENYLCYCLOBUTANE AND PHENYLCYCLOPENTANE ANALOGS AS RXFP1 AGONISTS” (BRISTOL-MYERS SQUIBB COMPANY, priority 2021, published 2026)

Target: T1, human RXFP1 (Homo sapiens, UniProt Q9HBX9)
T1 construct: expressed in transfected cells
T1 sequence (Q9HBX9 1-757): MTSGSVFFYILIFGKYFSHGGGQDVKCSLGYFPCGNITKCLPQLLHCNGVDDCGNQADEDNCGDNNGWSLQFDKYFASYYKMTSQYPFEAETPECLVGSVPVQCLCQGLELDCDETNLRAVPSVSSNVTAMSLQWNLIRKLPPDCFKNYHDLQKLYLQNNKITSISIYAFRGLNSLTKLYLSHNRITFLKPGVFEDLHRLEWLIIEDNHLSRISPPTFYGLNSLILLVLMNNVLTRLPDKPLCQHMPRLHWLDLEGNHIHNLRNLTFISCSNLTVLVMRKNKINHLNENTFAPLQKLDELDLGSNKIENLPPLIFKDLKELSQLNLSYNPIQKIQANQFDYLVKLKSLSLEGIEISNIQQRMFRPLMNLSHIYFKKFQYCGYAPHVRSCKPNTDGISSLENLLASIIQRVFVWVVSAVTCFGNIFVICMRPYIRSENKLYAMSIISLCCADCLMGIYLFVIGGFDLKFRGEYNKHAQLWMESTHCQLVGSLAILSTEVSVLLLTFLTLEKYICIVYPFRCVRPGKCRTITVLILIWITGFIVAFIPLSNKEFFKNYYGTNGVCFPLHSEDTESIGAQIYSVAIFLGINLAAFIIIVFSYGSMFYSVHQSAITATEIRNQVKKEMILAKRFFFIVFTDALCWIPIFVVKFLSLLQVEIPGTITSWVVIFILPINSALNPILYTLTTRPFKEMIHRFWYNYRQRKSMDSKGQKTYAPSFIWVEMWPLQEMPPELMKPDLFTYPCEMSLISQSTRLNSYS
Experiment: hRXFP1 HEK293 cAMP assay (HTRF)
Format: cell-based
Conditions: HEK293 cells stably expressing human RXFP1
Experimental: RXFP1 Cyclic Adenosine Monophosphate (cAMP) Assays. Human embryonic kidney cells 293 (HEK293) cells and HEK293 cells stably expressing human RXFP1, were cultured in MEM medium supplemented with 10% qualified FBS, and 300 μg/ml hygromycin (Life Technologies). Cells were dissociated and suspended in assay buffer. The assay buffer was HBSS buffer (with calcium and magnesium) containing 20 mM HEPES, 0.05% BSA, and 0.5 mM IBMX. Cells (3000 cells per well, except 1500 cell per well for HEK293 cells stably expressing human RXFP1) were added to 384-well Proxiplates (Perkin-Elmer). Cells were immediately treated with test compounds in DMSO (2% final) at final concentrations in the range of 0.010 nM to 50 μM. Cells were incubated for 30 min at room temperature. The level of intracellular cAMP was determined using the HTRF HiRange cAMP assay reagent kit (Cisbio) according to manufacturer's instructions. Solutions of cryptate conjugated anti-cAMP and d2 fluorophore-labelled cAMP were made in a supplied lysis buffer separately. Upon completion of the reaction, the cells were lysed with equal volume of the d2-cAMP solution and anti-cAMP solution. After a 1 h room temperature incubation, time-resolved fluorescence intensity was measured using the Envision (Perkin-Elmer) at 400 nm excitation and dual emission at 590 nm and 665 nm. A calibration curve was constructed with an external cAMP standard at concentrations ranging from 2.7 μM to 0.1 μM by plotting the fluorescent intensity ratio from 665 nm emission to the intensity from the 590 nm emission against cAMP concentrations. The potency and activity of a compound to […] cAMP production was then determined by fitting to a 4-parametric logistic equation from a plot of cAMP level versus compound concentrations.
The examples disclosed below were tested in the human RXFP1 (hRXFP1) HEK293 cAMP assay described above and found to have agonist activity. Tables 1-3, lists EC50 values in the hRXFP1 HEK293 cAMP assay measured for the examples.

[1] = phenylcyclohexyl (tetraline) examples

| Structure (SMILES) | EC50 [1] | EC50 (phenylcyclopentyl examples) |
| --- | --- | --- |
| COc1ccc(-c2cc(C(N)C(=O)O)ccc2F)cc1C(=O)Nc1cc2c(cc1C(=O)Nc1ccc(F)c(C(F)(F)F)c1)CCCC2 (single isomer, unassigned) [Example 3, 2-amino-2-(6-fluoro-3′-((3-((4-fluoro-3-(trifluoromethyl)phenyl)carbamoyl)-5,6,7,8-tetrahydronaphthalen-2-yl)carbamoyl)-4′-methoxy-[1,1′-biphenyl]-3-yl)acetic acid] | 2300 nM | – |
| COc1ccc(C2=NOC3CC(CO)CC23)cc1C(=O)Nc1cc2c(cc1C(=O)Nc1ccc(F)c(C(F)(F)F)c1)CCC2=O (single isomer, unassigned) [Example 27, N-(4-fluoro-3-(trifluoromethyl)phenyl)-6-(5-(5-(hydroxymethyl)-3a,5,6,6a-tetrahydro-4H-cyclopenta[d]isoxazol-3-yl)-2-methoxybenzamido)-1-oxo-2,3-dihydro-1H-indene-5-carboxamide] | – | 34 nM |
| COc1ccc(C2=NOC3CC(CO)CC23)cc1C(=O)Nc1cc2c(cc1C(=O)Nc1ccc(F)c(C(F)(F)F)c1)CCC2=O (single isomer, unassigned) [Example 28, N-(4-fluoro-3-(trifluoromethyl)phenyl)-6-(5-(5-(hydroxymethyl)-3a,5,6,6a-tetrahydro-4H-cyclopenta[d]isoxazol-3-yl)-2-methoxybenzamido)-1-oxo-2,3-dihydro-1H-indene-5-carboxamide] | – | 160 nM |
| COc1ccc(-c2cc(C(=O)O)ccc2F)cc1C(=O)Nc1cc2c(cc1C(=O)Nc1ccc(F)c(C(F)(F)F)c1)CCCC2 [Example 1, 6-fluoro-3′-((3-((4-fluoro-3-(trifluoromethyl)phenyl)carbamoyl)-5,6,7,8-tetrahydronaphthalen-2-yl)carbamoyl)-4′-methoxy-[1,1′-biphenyl]-3-carboxylic acid] | 390 nM | – |
| COc1ccc(-c2cc([C@H](O)C(F)(F)F)ccc2F)cc1C(=O)Nc1cc2c(cc1C(=O)Nc1ccc(F)c(C(F)(F)F)c1)CCCC2 [Example 4, (S)—N-(4-fluoro-3-(trifluoromethyl)phenyl)-3-(2′-fluoro-4-methoxy-5′-(2,2,2-trifluoro-1-hydroxyethyl)-[1,1′-biphenyl]-3-carboxamido)-5,6,7,8-tetrahydronaphthalene-2-carboxamide] | 860 nM | – |
| COc1ccc(-c2cc([C@H](OC(=O)NC3CCC3)C(F)(F)F)ccc2F)cc1C(=O)Nc1cc2c(cc1C(=O)Nc1ccc(F)c(C(F)(F)F)c1)CCCC2 [Example 6, (S)-2,2,2-trifluoro-1-(6-fluoro-3′-((3-((4-fluoro-3-(trifluoromethyl)phenyl)carbamoyl)-5,6,7,8-tetrahydronaphthalen-2-yl)carbamoyl)-4′-methoxy-[1,1′-biphenyl]-3-yl)ethyl cyclobutylcarbamate] | 15 nM | – |
| COc1ccc(-c2cc(CC(=O)NCC3CCC3)ccc2F)cc1C(=O)Nc1cc2c(cc1C(=O)Nc1ccc(F)c(C(F)(F)F)c1)CCCC2 [Example 9, 3-(5′-(2-((cyclobutylmethyl)amino)-2-oxoethyl)-2′-fluoro-4-methoxy-[1,1′-biphenyl]-3-carboxamido)-N-(4-fluoro-3-(trifluoromethyl)phenyl)-5,6,7,8-tetrahydronaphthalene-2-carboxamide] | 22 nM | – |
| COc1ccc(-c2noc(CCO)c2CCO)cc1C(=O)Nc1cc2c(cc1C(=O)Nc1ccc(F)c(C(F)(F)F)c1)CCCC2 [Example 16, 3-(5-(4,5-bis(2-hydroxyethyl)isoxazol-3-yl)-2-methoxybenzamido)-N-(4-fluoro-3-(trifluoromethyl)phenyl)-5,6,7,8-tetrahydronaphthalene-2-carboxamide] | 5000 nM | – |

Further lines, results first:

| EC50 [1] | EC50 (phenylcyclopentyl examples) | Structure (SMILES) |
| --- | --- | --- |
| 3700 nM | – | COc1ccc(C2=NOC3CNCC23)cc1C(=O)Nc1cc2c(cc1C(=O)Nc1ccc(F)c(C(F)(F)F)c1)CCCC2 (mixture of isomers) [Example 15, N-(4-fluoro-3-(trifluoromethyl)phenyl)-3-(2-methoxy-5-(3a,5,6,6a-tetrahydro-4H-pyrrolo[3,4-d]isoxazol-3-yl)benzamido)-5,6,7,8-tetrahydronaphthalene-2-carboxamide] |
| – | 2700 nM | COc1ccc(-c2cc(C(=O)O)ccc2F)cc1C(=O)Nc1cc2c(cc1C(=O)Nc1ccc(F)c(C(F)(F)F)c1)CCC2O (racemic) [Example 29, 6-fluoro-3′-((6-((4-fluoro-3-(trifluoromethyl)phenyl)carbamoyl)-3-hydroxy-2,3-dihydro-1H-inden-5-yl)carbamoyl)-4′-methoxy-[1,1′-biphenyl]-3-carboxylic acid] |
| 1.8 nM | – | COc1ccc(-c2cc(C(NC(=O)C3CCOCC3)C(=O)O)ccc2F)cc1C(=O)Nc1cc2c(cc1C(=O)Nc1ccc(F)c(C(F)(F)F)c1)CCCC2 (single isomer, unassigned) [Example 2, 2-(6-fluoro-3′-((3-((4-fluoro-3-(trifluoromethyl)phenyl)carbamoyl)-5,6,7,8-tetrahydro-naphthalen-2-yl)carbamoyl)-4′-methoxy-[1,1′-biphenyl]-3-yl)-2-(tetrahydro-2H-pyran-4-carboxamido)acetic acid] |
| 19 nM | – | COc1ccc(C2=NOC3CC(CO)CC23)cc1C(=O)Nc1cc2c(cc1C(=O)Nc1ccc(F)c(C(F)(F)F)c1)CCCC2 (single isomer, unassigned) [Example 13, N-(4-fluoro-3-(trifluoromethyl)phenyl)-3-(5-(5-(hydroxymethyl)-3a,5,6,6a-tetrahydro-4H-cyclopenta[d]-isoxazol-3-yl)-2-methoxybenzamido)-5,6,7,8-tetrahydronaphthalene-2-carboxamide] |
| 82 nM | – | COc1ccc(C2=NOC3CC(CO)CC23)cc1C(=O)Nc1cc2c(cc1C(=O)Nc1ccc(F)c(C(F)(F)F)c1)CCCC2 (single isomer, unassigned) [Example 14, N-(4-fluoro-3-(trifluoromethyl)phenyl)-3-(5-(5-(hydroxymethyl)-3a,5,6,6a-tetrahydro-4H-cyclopenta[d]-isoxazol-3-yl)-2-methoxybenzamido)-5,6,7,8-tetrahydronaphthalene-2-carboxamide] |
| 33 nM | – | COc1ccc(-c2cc([C@H](OC(=O)Nc3ccccc3)C(F)(F)F)ccc2F)cc1C(=O)Nc1cc2c(cc1C(=O)Nc1ccc(F)c(C(F)(F)F)c1)CCCC2 [Example 5, (S)-2,2,2-trifluoro-1-(6-fluoro-3′-((3-((4-fluoro-3-(trifluoromethyl)phenyl)carbamoyl)-5,6,7,8-tetrahydronaphthalen-2-yl)carbamoyl)-4′-methoxy-[1,1′-biphenyl]-3-yl)ethyl phenylcarbamate] |
| 62 nM | – | COc1ccc(-c2cc([C@H](OC(=O)NC3CC(F)(F)C3)C(F)(F)F)ccc2F)cc1C(=O)Nc1cc2c(cc1C(=O)Nc1ccc(F)c(C(F)(F)F)c1)CCCC2 [Example 7, (S)-2,2,2-trifluoro-1-(6-fluoro-3′-((3-((4-fluoro-3-(trifluoro-methyl)phenyl)carbamoyl)-5,6,7,8-tetra-hydronaphthalen-2-yl)carbamoyl)-4′-methoxy-[1,1′-biphenyl]-3-yl)ethyl (3,3-difluorocyclo-butyl)carbamate] |
| 4200 nM | – | COc1ccc(-c2cc(C(=O)NCC3CCC3)ccc2F)cc1C(=O)Nc1cc2c(cc1C(=O)Nc1ccc(F)c(C(F)(F)F)c1)CCCC2 [Example 8, N3′-(cyclobutyl-methyl)-6′-fluoro-N3-(3-((4-fluoro-3-(trifluoromethyl)phenyl)carbamoyl)-5,6,7,8-tetrahydro-naphthalen-2-yl)-4-methoxy-[1,1′-biphenyl]-3,3′-dicarboxamide] |
| 290 nM | – | COc1ccc(C2=NOC3CC(CO)CC23)cc1C(=O)Nc1cc2c(cc1C(=O)Nc1ccc(F)c(C(F)(F)F)c1)CCCC2 (centres unmarked) [Example 12, N-(4-fluoro-3-(trifluoromethyl)phenyl)-3-(5-(5-(hydroxymethyl)-3a,5,6,6a-tetrahydro-4H-cyclopenta[d]-isoxazol-3-yl)-2-methoxybenzamido)-5,6,7,8-tetrahydronaphthalene-2-carboxamide] |
